From US8952157B2, “Apoptosis-inducing agents for the treatment of cancer and immune and autoimmune diseases” (AbbVie Inc., priority 2008, dated 2015)

What follows are compounds tested against GST-Bcl-2 (Homo sapiens (Human), UniProt P10415) (assay: Time Resolved-Fluorescence Resonance Energy Transfer (TR-FRET) Bcl-2 binding assay). Details: not given.
GST-Bcl-2, sequence (P10415 whole entry): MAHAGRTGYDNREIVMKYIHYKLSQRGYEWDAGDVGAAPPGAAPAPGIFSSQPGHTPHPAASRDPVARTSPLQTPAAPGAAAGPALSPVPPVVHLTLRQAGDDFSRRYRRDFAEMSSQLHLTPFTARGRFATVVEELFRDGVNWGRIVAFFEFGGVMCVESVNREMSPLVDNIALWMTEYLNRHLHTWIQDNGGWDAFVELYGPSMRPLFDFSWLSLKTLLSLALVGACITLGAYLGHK
Procedure: Determination of the utility of compounds having Formula (I) as binders to and inhibitors of anti-apoptotic Bcl-2 proteins was performed using the Time Resolved-Fluorescence Resonance Energy Transfer (TR-FRET) Assay. Tb-anti-GST antibody was purchased from Invitrogen (Catalog No. PV4216).
(§1) Representative compounds were serially diluted in dimethyl sulfoxide (DMSO) starting at 50 μM (2× starting concentration; 10% DMSO) and 10 μL were transferred into a 384-well plate. The samples are then mixed on a shaker for 1 minute and incubated for an additional 3 hours at room temperature. For each assay, the probe/antibody and protein/probe/antibody were included on each assay plate as negative and positive controls, respectively. Fluorescence was measured on the Envision (Perkin Elmer) using a 340/35 nm excitation filter and 520/525 (F-Bak peptide) and 495/510 nm (Tb-labeled anti-Histidine antibody) emission filters.
as §1, with “The” for “Representative compounds were serially diluted in dimethyl sulfoxide (DMSO) starting at 50 μM (2× starting concentration; 10% DMSO) and 10 μL were transferred into a 384-well plate. The”, “were” for “are”
The inhibition constant (Ki) is the dissociation constant of an enzyme-inhibitor complex or a protein/small molecule complex, wherein the small molecule is inhibiting binding of one protein to another protein. So a large Ki value indicates a low binding affinity and a small Ki value indicates a high binding affinity.
For CC1(C)CCC(CN2CCN(c3ccc(C(=O)NS(=O)(=O)c4ccc(N[C@H]5CC[C@H](N6CCOCC6)CC5)c([N+](=O)[O-])c4)c(Oc4cccc5c4CC(=O)N5)c3)CC2)=C(c2ccc(Cl)cc2)C1 [Example 320, Trans-4-(4-{[2-(4-chlorophenyl)-4,4-dimethylcyclohex-1-en-1-yl]methyl}piperazin-1-yl)-N-({4-[(4-morpholin-4-ylcyclohexyl)amino]-3-nitrophenyl}sulfonyl)-2-[(2-oxo-2,3-dihydro-1H-indol-4-yl)oxy]benzamide], the Ki was 0.028 nM.

Same assay, conditions: GST-Bcl-2 1 nM, F-Bak peptide probe 100 nM, Tb-anti-GST antibody 1 nM; Ki by Wang's equation
Work on CN1CCC(O)(CNc2ccc(S(=O)(=O)NC(=O)c3ccc(N4CCN(CC5=C(c6ccc(Cl)cc6)CC(C)(C)CC5)CC4)cc3Oc3ccccc3Cl)cc2[N+](=O)[O-])CC1 [Example 192, 2-(2-chlorophenoxy)-4-(4-{[2-(4-chlorophenyl)-4,4-dimethylcyclohex-1-en-1-yl]methyl}piperazin-1-yl)-N-[(4-{[(4-hydroxy-1-methylpiperidin-4-yl)methyl]amino}-3-nitrophenyl)sulfonyl]benzamide] yielded a Ki of 0.024 nM. CC1(C)CCC(CN2CCN(c3ccc(C(=O)NS(=O)(=O)c4ccc(NCC5CCOCC5)c([N+](=O)[O-])c4)c(Oc4cnc(N)c(Br)c4)c3)CC2)=C(c2ccc(Cl)cc2)C1 [Example 350, 2-[(6-amino-5-bromopyridin-3-yl)oxy]-4-(4-{[2-(4-chlorophenyl)-4,4-dimethylcyclohex-1-en-1-yl]methyl}piperazin-1-yl)-N-({3-nitro-4-[(tetrahydro-2H-pyran-4-ylmethyl)amino]phenyl}sulfonyl)benzamide] was tested, and the Ki was < 0.01 nM. CN(C)C1CCC(Nc2ccc(S(=O)(=O)NC(=O)c3ccc(N4CCN(CC5=C(c6ccc(Cl)cc6)CC(C)(C)CC5)CC4)cc3Oc3cccc(Cl)c3)cc2[N+](=O)[O-])CC1 (stereo not drawn) [Example 203, 2-(3-chlorophenoxy)-4-(4-{[2-(4-chlorophenyl)-4,4-dimethylcyclohex-1-en-1-yl]methyl}piperazin-1-yl)-N-[(4-{[4-(dimethylamino)cyclohexyl]amino}-3-nitrophenyl)sulfonyl]benzamide] gave a Ki of 0.084 nM. O=C(NS(=O)(=O)c1ccc(NCC2CCOCC2)c([N+](=O)[O-])c1)c1ccc(N2CCN(Cc3ccccc3-c3ccc(Cl)cc3)CC2)cc1Oc1ccc(-n2ccnc2)cc1 [Example 76, 4-(4-((4′-chloro-1,1′-biphenyl-2-yl)methyl)piperazin-1-yl)-2-(4-(1H-imidazol-1-yl)phenoxy)-N-((3-nitro-4-((tetrahydro-2H-pyran-4-ylmethyl)amino)phenyl)sulfonyl)benzamide] gave a Ki of 240 nM. CC(C)c1cc(Oc2cc(N3CCN(CC4=C(c5ccc(Cl)cc5)CC(C)(C)CC4)CC3)ccc2C(=O)NS(=O)(=O)c2ccc(NCC3CCOCC3)c([N+](=O)[O-])c2)cnc1N [Example 365, 2-[(6-amino-5-isopropylpyridin-3-yl)oxy]-4-(4-{[2-(4-chlorophenyl)-4,4-dimethylcyclohex-1-en-1-yl]methyl}piperazin-1-yl)-N-({3-nitro-4-[(tetrahydro-2H-pyran-4-ylmethyl)amino]phenyl}sulfonyl)benzamide] showed a Ki of 4.55 nM. In the case of CN1CCC(Nc2ccc(S(=O)(=O)NC(=O)c3ccc(N4CCN(CC5=C(c6ccc(Cl)cc6)CC(C)(C)CC5)CC4)cc3Oc3ccc(F)cc3)cc2[N+](=O)[O-])CC1 [Example 118, 4-(4-{[2-(4-chlorophenyl)-4,4-dimethylcyclohex-1-en-1-yl]methyl}piperazin-1-yl)-2-(4-fluorophenoxy)-N-({4-[(1-methylpiperidin-4-yl)amino]-3-nitrophenyl}sulfonyl)benzamide], the Ki is reported as 0.151 nM. Work on CN(C)Cc1ccc(Oc2cc(N3CCN(Cc4ccccc4-c4ccc(Cl)cc4)CC3)ccc2C(=O)NS(=O)(=O)c2ccc(NCC3CCOCC3)c([N+](=O)[O-])c2)cc1 [Example 75, 4-(4-((4′-chloro-1,1′-biphenyl-2-yl)methyl)piperazin-1-yl)-2-(4-((dimethylamino)methyl)phenoxy)-N-((3-nitro-4-((tetrahydro-2H-pyran-4-ylmethyl)amino)phenyl)sulfonyl)benzamide] yielded a Ki of 76.8 nM. CN1CCN(Nc2ccc(S(=O)(=O)NC(=O)c3ccc(N4CCN(CC5=C(c6ccc(Cl)cc6)CC(C)(C)CC5)CC4)cc3Oc3ccc(O)cc3Cl)cc2S(=O)(=O)C(F)(F)F)CC1 [Example 211, 2-(2-chloro-4-hydroxyphenoxy)-4-(4-{[2-(4-chlorophenyl)-4,4-dimethylcyclohex-1-en-1-yl]methyl}piperazin-1-yl)-N-({4-[(4-methylpiperazin-1-yl)amino]-3-[(trifluoromethyl)sulfonyl]phenyl}sulfonyl)benzamide] showed a Ki of 1.34 nM. In the case of CN1CCN(CCCNc2ccc(S(=O)(=O)NC(=O)c3ccc(N4CCN(CC5=C(c6ccc(Cl)cc6)CC(C)(C)CC5)CC4)cc3Oc3cccc(Cl)c3)cc2[N+](=O)[O-])CC1 [Example 143, 2-(3-chlorophenoxy)-4-(4-{[2-(4-chlorophenyl)-4,4-dimethylcyclohex-1-en-1-yl]methyl}piperazin-1-yl)-N-[(4-{[3-(4-methylpiperazin-1-yl)propyl]amino}-3-nitrophenyl)sulfonyl]benzamide], the Ki is reported as 0.053 nM. For CN1CCC(Nc2ccc(S(=O)(=O)NC(=O)c3ccc(N4CCN(CC5=C(c6ccc(Cl)cc6)CC(C)(C)CC5)CC4)cc3Oc3ccccc3Cl)cc2[N+](=O)[O-])CC1 [Example 34, 2-(2-chlorophenoxy)-4-(4-((2-(4-chlorophenyl)-4,4-dimethylcyclohex-1-en-1-yl)methyl)piperazin-1-yl)-N-((4-((1-methylpiperidin-4-yl)amino)-3-nitrophenyl)sulfonyl)benzamide], the Ki was 0.049 nM. In the case of CC1(C)CCC(CN2CCN(c3ccc(C(=O)NS(=O)(=O)c4cnc(OCC5(F)CCN(CC(F)F)CC5)c(Cl)c4)c(Oc4cnc(N)c(Cl)c4)c3)CC2)=C(c2ccc(Cl)cc2)C1 [Example 403, 2-[(6-amino-5-chloropyridin-3-yl)oxy]-N-[(5-chloro-6-{[1-(2,2-difluoroethyl)-4-fluoropiperidin-4-yl]methoxy}pyridin-3-yl)sulfonyl]-4-(4-{[2-(4-chlorophenyl)-4,4-dimethylcyclohex-1-en-1-yl]methyl}piperazin-1-yl)benzamide], the Ki is reported as 2.14 nM. CN(C)CCc1ccccc1Oc1cc(N2CCN(Cc3ccccc3-c3ccc(Cl)cc3)CC2)ccc1C(=O)NS(=O)(=O)c1ccc(NCC2CCOCC2)c([N+](=O)[O-])c1 [Example 29, 4-(4-((4′-chloro-1,1′-biphenyl-2-yl)methyl)piperazin-1-yl)-2-(2-(2-(dimethylamino)ethyl)phenoxy)-N-((3-nitro-4-((tetrahydro-2H-pyran-4-ylmethyl)amino)phenyl)sulfonyl)benzamide] showed a Ki of 0.903 nM. With CC1(C)CCC(CN2CCN(c3ccc(C(=O)NS(=O)(=O)c4ccc(NCC5CCOCC5)c([N+](=O)[O-])c4)c(Oc4cnc(N)c(C5CC5)c4)c3)CC2)=C(c2ccc(Cl)cc2)C1 [Example 366, 2-[(6-amino-5-cyclopropylpyridin-3-yl)oxy]-4-(4-{[2-(4-chlorophenyl)-4,4-dimethylcyclohex-1-en-1-yl]methyl}piperazin-1-yl)-N-({3-nitro-4-[(tetrahydro-2H-pyran-4-ylmethyl)amino]phenyl}sulfonyl)benzamide] the Ki was 6.05 nM. Work on CN1CCC(Nc2ccc(S(=O)(=O)NC(=O)c3ccc(N4CCN(CC5=C(c6ccc(Cl)cc6)CC(C)(C)CC5)CC4)cc3Oc3ccc4[nH]ccc4c3F)cc2[N+](=O)[O-])CC1 [Example 157, 4-(4-{[2-(4-chlorophenyl)-4,4-dimethylcyclohex-1-en-1-yl]methyl}piperazin-1-yl)-2-[(4-fluoro-1H-indol-5-yl)oxy]-N-({4-[(1-methylpiperidin-4-yl)amino]-3-nitrophenyl}sulfonyl)benzamide] yielded a Ki of 0.72 nM. Cc1c[nH]c2cccc(Oc3cc(N4CCN(CC5=C(c6ccc(Cl)cc6)CC(C)(C)CC5)CC4)ccc3C(=O)NS(=O)(=O)c3ccc(NC4CCN(C)CC4)c([N+](=O)[O-])c3)c12 [Example 66, 4-(4-((2-(4-chlorophenyl)-4,4-dimethylcyclohex-1-en-1-yl)methyl)piperazin-1-yl)-2-((3-methyl-1H-indol-4-yl)oxy)-N-((4-((1-methylpiperidin-4-yl)amino)-3-nitrophenyl)sulfonyl)benzamide] was tested, and the Ki was 0.592 nM. With COCOc1cccc(Oc2cc(N3CCN(CC4=C(c5ccc(Cl)cc5)CC(C)(C)CC4)CC3)ccc2C(=O)NS(=O)(=O)c2ccc(NC3CCN(C)CC3)c([N+](=O)[O-])c2)c1C [Example 158, 4-(4-{[2-(4-chlorophenyl)-4,4-dimethylcyclohex-1-en-1-yl]methyl}piperazin-1-yl)-2-[3-(methoxymethoxy)-2-methylphenoxy]-N-({4-[(1-methylpiperidin-4-yl)amino]-3-nitrophenyl}sulfonyl)benzamide] the Ki was 0.619 nM. With CN1CCN(Nc2ccc(S(=O)(=O)NC(=O)c3ccc(N4CCN(CC5=C(c6ccc(Cl)cc6)CC(C)(C)CC5)CC4)cc3Oc3cnc(N)c(Br)c3)cc2[N+](=O)[O-])CC1 [Example 359, 2-[(6-amino-5-bromopyridin-3-yl)oxy]-4-(4-{[2-(4-chlorophenyl)-4,4-dimethylcyclohex-1-en-1-yl]methyl}piperazin-1-yl)-N-({4-[(4-methylpiperazin-1-yl)amino]-3-nitrophenyl}sulfonyl)benzamide] the Ki was 0.11 nM.
